US20250127784A1, “Treatment of Telangiectasia” (IMPERIAL COLLEGE INNOVATIONS LIMITED, priority 2022, published 2025)
Entries after “also recorded” stand apart in the source; their conditions may differ.

Columns and labels:
[1] = test system: pulmonary arteriovenous malformations (PAVMs) of the HHT patient; assay: Blinded thoracic CT scan comparison of pulmonary AVMs before and after trametinib; assay type: in vivo, human; conditions: for effect on pulmonary AVMs (CT scans): 1 month before versus after 10 months of trametinib treatment; for size of venous sac #7: 13 mm at T−2 ys, 15 mm at T−1M
Procedure: Thoracic CT scan images taken for clinical purposes were compared before Trametinib (−10 years (T−10 yrs), −2 years (T−2ys), −1 month (T−1M)), and after Trametinib for 4 months (T+4M), 10 months (T+10M) and 18 months (T+18M, data not shown).
Blinded analysis of the CT scans was conducted by an expert Imperial Thoracic Radiologist to address the question of “whether the PAVMs have stayed the same, got better, or got worse?”

[2] = test system: HHT-associated haemorrhage (nosebleeds) and anaemia in ENG+/− HHT patient; assay: Clinical case: HHT patient treated with trametinib, nosebleeds and transfusion-dependent anaemia; conditions: for nosebleed frequency grade/category for HHT patients (Shovlin 2010, N=202): pre: highest category
[3] = dose of 2 mg/day; cited from earlier work
[4] = test system: MAP3K1 transcripts in BOECs; assay: RNASeq of blood outgrowth endothelial cells (BOECs) treated by BMP9: MAP3K1; assay type: cell-based, human; conditions: all BOECs (N=16), treated by BMP9 for 1 hour versus untreated
Procedure: FIG. 8: MAP3K1 RNASeq data in HHT and control endothelial cells from 16 cultures of blood outgrowth endothelial cells (BOECs: 4 controls, and 12 from the HHT genotypes ACVRL1^+/−, ENG^+/− and SMAD4^+/−). Data were RBM45-normalised. A Untreated BOECs (N=8). B All BOECs (N=16), untreated (unRx), and treated (Rx) by BMP9 for 1 hour. Bars: mean and standard deviation; circles: individual cultures.
To test this hypothesis, further RNASeq analysis of blood outgrowth endothelial cells (BOECs) from HHT patients was carried out. It has previously been shown that the Shovlin group established BOECs from controls and patients of all 3 HHT genotypes (ENG^+/−, ACVRL1^+/− and SMAD4^+/−); extracted RNA from replicate cultures; and developed novel methodologies to interpret primary alignment data generated by sequencing alignments to Homo sapiens human genome build 38 (GRCh38). […]
To test this hypothesis, further RNAseq analysis of blood outgrowth endothelial cells (BOECs) from HHT patients was carried out, and the relative expression levels of TGFβ/BMP9 signalling inhibitors was investigated. […] RNA had been extracted from replicate cultures; sequenced and aligned to Homo sapiens human genome build 38 (GRCh38), and unique gene reads normalised to total alignment counts per library initially further normalised using the Shovlin-group validated, lowest Gini Coefficient (GC) housekeeper gene RBM45 […]

[5] = test system: MEK1/2 transcript levels in control and ENG+/− BOECs; assay: RNASeq of blood outgrowth endothelial cells (BOECs) treated by BMP9: MEK1/2; assay type: cell-based, human; conditions: treated by BMP9 for 1 hour versus untreated, RBM45-normalised
Procedure: (§1) FIG. 9: RNASeq data in HHT and control endothelial cells for MAP2K1 encoding MEK1 from 16 cultures of blood outgrowth endothelial cells (BOECs: 4 controls, and 12 from the HHT genotypes ACVRL1^+/−, ENG^+/− and SMAD4^+/−). Data were RBM45-normalised which normalises for PTC-induced stress. A All BOECs, B Control and ENG BOECs; C Control and ENG BOECs untreated (unRx) and treated (Rx) by BMP9 for 1 hour. Bars: mean and standard deviation; circles: individual cultures.
as §1, with “10:” for “9:”, “MAP2K2” for “MAP2K1”, “MEK2” for “MEK1”
RNAseq was carried out on BOECs from HHT patients and healthy controls to investigate MEK1/MEK2 transcription levels, using RBM45 normalisation to normalise for PTC-related stress.

CC(=O)Nc1cccc(-n2c(=O)n(C3CC3)c(=O)c3c(Nc4ccc(I)cc4F)n(C)c(=O)c(C)c32)c1 [trametinib, N-(3-{3-Cyclopropyl-5-[(2-fluoro-4-iodophenyl)amino]-6,8-dimethyl-2,4,7-trioxo-3,4,6,7-tetrahydropyrido[4,3-d]pyrimidin-1(2H)-yl}phenyl)acetamide]
effect on pulmonary AVMs (CT scans) [1]: has no effect on the patient's AVMs; also recorded: pulmonary AVMs did not improve | effect on pulmonary AVMs (CT scans) ([1]; listed as Trametinib): No pulmonary AVMs improved; also recorded: had no effect on the PAVMs; also recorded: within the error of CT, but with a probable slight increase in size | size of venous sac #7 ([1]; T+4M (trametinib for 4 months)): 16 mm | size of venous sac #7 ([1]; T+10M (trametinib for 10 months)): 16.6 mm | number of the 11 main pulmonary AVMs possibly slightly larger ([1]; scans 1 month before trametinib and 11 months later, after 10 months of treatment): 4 | overall effect on HHT telangiectasia, nosebleeds (haemorrhage) and anaemia ([2]; ENG+/− HHT patient, trametinib treatment): treats telangiectasia, and particularly anaemia and haemorrhage associated with telangiectasia in HHT; also recorded: clinically important improvement in nosebleeds and anaemia; also recorded: elicited an improvement in HHT-associated haemorrhage (nosebleeds) and anaemia | maximum nose bleed frequency, two most severe categories (daily or weekly) ([2]; after 10 months of trametinib treatment): no longer fitted into either of these categories | haemorrhage adjusted iron requirement (HAIR) grouping (Finnamore 2013, N=50) ([2]; after 10 months of trametinib, pre: 4th highest grouping): lowest grouping | nosebleed frequency grade/category for HHT patients (Shovlin 2010, N=202) ([2]; after 10 months of trametinib): 3rd lowest frequency grade | nosebleed frequency grade/category for HHT patients (Shovlin 2010, N=202) ([2]; after 10 months of trametinib, listed as Trametinib): third lowest category | haemorrhage adjusted iron requirement (HAIR) quintile (Finnamore 2013, N=50) ([2]; after 10 months of trametinib, pre: highest quintile): lowest quintile | intensity of nosebleeds ([2]; after 10 months trametinib treatment): brief trickles | nosebleed frequency ([2]; after 10 months trametinib treatment, before: several times per week to multiple times per day): no more than once per month | blood (red cell) transfusion requirement for anaemia ([2]; after 10 months trametinib treatment, previously every 3 weeks): transfusions were not required even at extended assessment times | transfusion assessment interval ([2]; after 10 months trametinib treatment, previously transfusions every 3 weeks): 8 weekly | nosebleeds (frequency and intensity), maintained frequency ([2]; at 18 and 24 months of trametinib treatment): approximately one a year | haemorrhage adjusted iron requirement (HAIR) ([2]; at 18 and 24 months of trametinib treatment (not shown)): reduced | side effects, adverse event grade (CTCAE version 5.0) ([2]; standard chemotherapeutic regimen, HHT patient with cancer): Grade 1 | elimination half-life [3]: 93.6 to 115 h

B1: BMP9: bone morphogenetic protein 9 (aka growth and differentiation factor 2, GDF2); causal ligand for HHT, used to treat BOECs for 1 hour (protein, UniProt Q9UK05 320-429, looked up)
Growth/differentiation factor …: SAGAGSHCQKTSLRVNFEDIGWDSWIIAPKEYEAYECKGGCFFPLADDVTPTKHAIVQTLVHLKFPTKVGKACCVPTKLSPISVLYKDDMGVPTLKYHYEGMSVAECGCR
MAP3K1 transcripts (RNASeq) [4]: significantly increased | MEK1/2 transcript levels (RNASeq) [5]: no effect
